Results reported in patent US12474342B2, “Methods for treating cancer and the use of biomarkers as a predictor of clinical sensitivity to therapies” (CELGENE CORPORATION, priority 2016, dated 2025).
Like-named read-outs stand apart in the source and are kept apart here.

What was measured:
ML-2 cells = assay: Apoptosis (caspase 3/7 activation), ML-2; format: cell-based, human; details: for EC50: Homo sapiens, read-out: Compound D-induced Apoptosis EC50
OCI-AML2 cells [1] = assay: Anti-proliferation 72-hour CTG assay, OCI-AML2; format: cell-based; details: Homo sapiens; OCI-AML2, 72-hour CTG assay; read-out: IC50 of the anti-proliferative effect
Protocol: (§1) A plethora of AML cell lines were treated with serial dilutions of Compound D. IC50 value of the anti-proliferation effect of Compound D (as determined in 72-hour CTG assays) in each cell line is summarized in Table 1.

IKZF1 = IKZF1 (Homo sapiens, UniProt Q13422+Q96SW2); details: NB4 cell line
Sequence of IKZF1 (Q13422 whole entry): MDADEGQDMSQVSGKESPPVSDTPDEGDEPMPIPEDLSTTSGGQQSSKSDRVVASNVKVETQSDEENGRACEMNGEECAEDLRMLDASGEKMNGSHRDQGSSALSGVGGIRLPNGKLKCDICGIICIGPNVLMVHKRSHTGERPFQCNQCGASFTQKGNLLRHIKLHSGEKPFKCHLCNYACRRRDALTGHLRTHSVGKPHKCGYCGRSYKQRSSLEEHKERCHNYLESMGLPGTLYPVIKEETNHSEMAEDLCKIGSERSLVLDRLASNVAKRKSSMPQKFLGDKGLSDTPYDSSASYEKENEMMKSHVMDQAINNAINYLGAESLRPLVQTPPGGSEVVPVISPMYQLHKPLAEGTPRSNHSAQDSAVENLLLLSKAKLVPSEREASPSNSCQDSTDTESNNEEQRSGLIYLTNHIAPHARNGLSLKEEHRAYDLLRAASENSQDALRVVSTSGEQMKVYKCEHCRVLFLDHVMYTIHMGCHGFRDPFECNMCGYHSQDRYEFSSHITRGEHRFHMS
Sequence of IKZF1 (Q96SW2 whole entry): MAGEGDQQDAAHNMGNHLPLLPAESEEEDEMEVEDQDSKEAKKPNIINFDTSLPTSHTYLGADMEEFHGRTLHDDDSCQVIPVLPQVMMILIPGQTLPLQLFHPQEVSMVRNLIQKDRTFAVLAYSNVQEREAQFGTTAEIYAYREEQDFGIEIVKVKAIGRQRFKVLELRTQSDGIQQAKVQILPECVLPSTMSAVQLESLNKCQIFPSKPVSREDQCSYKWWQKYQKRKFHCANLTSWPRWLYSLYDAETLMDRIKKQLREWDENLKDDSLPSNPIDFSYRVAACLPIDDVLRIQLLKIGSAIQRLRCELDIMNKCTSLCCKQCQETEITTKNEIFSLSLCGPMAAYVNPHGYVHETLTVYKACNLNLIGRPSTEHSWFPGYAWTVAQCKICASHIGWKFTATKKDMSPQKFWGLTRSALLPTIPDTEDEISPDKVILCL
Sequence of IKZF1 (Q16531 whole entry partner): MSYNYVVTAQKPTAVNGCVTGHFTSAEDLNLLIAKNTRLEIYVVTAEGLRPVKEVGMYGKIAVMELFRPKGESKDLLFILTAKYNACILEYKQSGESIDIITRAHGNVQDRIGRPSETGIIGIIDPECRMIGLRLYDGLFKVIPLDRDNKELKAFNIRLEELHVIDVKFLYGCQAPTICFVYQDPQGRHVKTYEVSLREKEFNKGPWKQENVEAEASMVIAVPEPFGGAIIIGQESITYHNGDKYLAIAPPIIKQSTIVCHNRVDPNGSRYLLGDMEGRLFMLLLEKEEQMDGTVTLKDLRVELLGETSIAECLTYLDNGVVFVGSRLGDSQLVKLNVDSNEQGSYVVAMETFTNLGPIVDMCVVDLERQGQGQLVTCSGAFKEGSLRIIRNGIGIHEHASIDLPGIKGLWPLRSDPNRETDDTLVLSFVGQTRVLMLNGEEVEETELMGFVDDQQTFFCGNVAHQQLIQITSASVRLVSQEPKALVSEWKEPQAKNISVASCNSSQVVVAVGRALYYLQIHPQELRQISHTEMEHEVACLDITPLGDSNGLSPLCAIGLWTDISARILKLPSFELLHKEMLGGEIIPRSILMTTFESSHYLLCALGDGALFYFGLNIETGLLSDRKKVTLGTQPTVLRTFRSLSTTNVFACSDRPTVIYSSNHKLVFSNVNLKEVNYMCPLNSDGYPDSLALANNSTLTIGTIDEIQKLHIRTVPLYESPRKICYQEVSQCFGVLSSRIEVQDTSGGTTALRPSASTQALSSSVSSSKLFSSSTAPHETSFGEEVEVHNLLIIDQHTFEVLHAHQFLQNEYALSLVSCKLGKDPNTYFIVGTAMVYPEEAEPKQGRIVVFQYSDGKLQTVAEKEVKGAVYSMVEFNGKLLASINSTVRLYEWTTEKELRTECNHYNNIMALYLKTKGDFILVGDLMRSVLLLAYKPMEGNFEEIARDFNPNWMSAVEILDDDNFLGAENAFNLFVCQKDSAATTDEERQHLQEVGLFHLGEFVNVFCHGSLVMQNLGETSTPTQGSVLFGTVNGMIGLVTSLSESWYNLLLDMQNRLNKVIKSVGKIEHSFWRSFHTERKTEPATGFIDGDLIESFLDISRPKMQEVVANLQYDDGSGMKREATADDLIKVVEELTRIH

OCI-AML2 cells [2] = assay: Apoptosis (caspase 3/7 activation), OCI-AML2; format: cell-based, human; details: for EC50: Homo sapiens, read-out: Compound D-induced Apoptosis EC50
U-937 cells = assay: Anti-proliferation CTG assay, U-937; format: cell-based, human
Protocol: as §1
The effect of overexpression of GSPT1 on the anti-proliferative effect of Compound D and Compound E was determined in human histiocytic lymphoma cell line U937 and human leukemia cell line MOLM13. Treatment compounds (e.g., Compound D or Compound E) were titrated from 0.001 μM to 10 μM. Cell proliferation was measured by CellTiter-Glo cell viability assay at 48 hours after treatment. […] However, when exogenous GSPT1 was overproduced via the EF1α promoter, as shown in FIGS. 5A-5D, the anti-proliferative effect of Compound D and Compound E reduced.

GSPT1 [3] = target: T1, GSPT1 (Homo sapiens, UniProt P15170+Q96SW2); assay: GSPT1 protein reduction, western analysis, KG-1; format: cell-based; design: reduction in GSPT1 protein level was evaluated in human normal PBMCs; endogenous in cells; host or cells: primary PBMCs from normal donors (ID 4328, 4379) and AML patients (ID 11SH, 09P6)
T1 sequence (P15170 1-637 isoform P15170-3): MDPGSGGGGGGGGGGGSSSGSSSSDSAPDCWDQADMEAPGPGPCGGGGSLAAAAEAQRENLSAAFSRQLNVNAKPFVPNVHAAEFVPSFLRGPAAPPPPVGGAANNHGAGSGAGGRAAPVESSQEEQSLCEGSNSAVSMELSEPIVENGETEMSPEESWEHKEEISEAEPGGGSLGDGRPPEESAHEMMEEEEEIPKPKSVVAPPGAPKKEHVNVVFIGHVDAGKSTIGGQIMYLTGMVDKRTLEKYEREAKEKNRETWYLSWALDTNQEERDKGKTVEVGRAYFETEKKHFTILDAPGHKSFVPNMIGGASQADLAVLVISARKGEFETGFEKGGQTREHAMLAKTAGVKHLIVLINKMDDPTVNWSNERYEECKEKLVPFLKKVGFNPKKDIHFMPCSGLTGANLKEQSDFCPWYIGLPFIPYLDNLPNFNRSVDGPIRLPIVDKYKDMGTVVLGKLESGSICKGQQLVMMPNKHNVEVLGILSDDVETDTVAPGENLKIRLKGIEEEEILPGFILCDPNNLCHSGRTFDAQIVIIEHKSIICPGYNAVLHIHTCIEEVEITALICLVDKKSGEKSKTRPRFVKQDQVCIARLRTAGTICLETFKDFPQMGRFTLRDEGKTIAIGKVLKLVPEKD
T1 sequence (Q96SW2 whole entry): as the sequence (Q96SW2 whole entry) above
T1 sequence (Q16531 whole entry partner): as the sequence (Q16531 whole entry partner) above
Protocol: Cells were treated with DMSO alone, 200 nM Compound D, or 200 nM Compound E. After 8 or 12 hours, the expression levels of various cellular components along UPR or apoptosis pathways were measured. […] Reduction of BIP indicates UPR.
To further investigate the timeline of cellular events upon Compound D treatment, KG1 cells were treated with DMSO alone or 200 nM Compound D. At 2, 4, 6, 8, 10, or 12 hours, the expression levels of various cellular components along ATF4 or apoptosis pathways were measured.
In two sensitive AML cell lines, KG-1 and HL-60, both a concentration-dependent decrease in GSPT1 protein and an increase in RNA expression of ATF3, CHOP, and SRSF3 and SRSF6 NMD transcripts at the 8-hour time point were compared to caspase 3/7 activation (apoptosis) at the 24-hour (FIG. 30A [KG-1]; FIG. 30C [HL-60]) and 48-hour (FIG. 30B [KG-1]; FIG. 30D [HL-60]) time points.
The reduction in the level of GSPT1 protein was concentration-dependent over the range of 3 to 1000 nM in eight of the nine AML cell lines and over the range of 300 to 1000 nM in one relatively insensitive AML cell line. The time course of the reduction in GSPT1 by Compound D also was studied for up to 48 hours. The progressive degradation of GSPT1 over the course of 1 to 20 hours was evident in the presence of all concentrations of Compound D studied from 3 to 300 nM in HNT-34, HL-60, and ML-2 cells, with little GSPT1 remaining by 20 hours at 100 or 300 nM Compound D in HNT-34 or HL-60 cells (FIG. 34 and FIG. 35C). Time-dependent reduction in GSPT1 was also observed in KG-1 and OCI-AML2 cells at 3 to 1000 nM Compound D, with little GSPT1 remaining in KG-1 cells at 100 to 300 nM at 24 hours or in OCI-AML2 cells at 300 and 1000 nM at 24 hours (FIG. 35D). Loss of GSPT1 occurred more slowly in Kasumi-1, AML-193, and F36-P cells.
Compound D-mediated GSPT1 reduction at 8 hours was compared to induction of caspase 3/7 activation (apoptosis) at 12, 24, and 48 hour time points in these nine AML cell lines. […] A positive association (r^2=0.50; R=0.71; p value=4.86E-002) was observed between the level of GSPT1 reduction and apoptosis induction in the AML cell panel (FIG. 36), with >90% GSPT1 reduction correlating with induction of apoptosis.

GSPT1 [4] = target: T1, GSPT1; assay: GSPT1 protein reduction, western analysis, normal PBMCs
Protocol: PBMC were treated with 1 nM, 10 nM, 100 nM, or 1000 nM of Compound D or Compound E for 20 hours.

GSPT1 [5] = target: T1, GSPT1; assay: GSPT1 protein reduction, western analysis, AML patient PBMCs; format: cell-based; design: reduction in GSPT1 protein level was evaluated in human normal PBMCs; endogenous in cells; host or cells: primary PBMCs from normal donors (ID 4328, 4379) and AML patients (ID 11SH, 09P6); details: PBMC sample 11SH (AML)

**Q.** How did the EC50 (ML-2 cells; ML-2, 24 hr) turn out when `O=C1CCC(N2Cc3cc(CNC(=O)C(F)(F)c4ccc(Cl)cc4)ccc3C2=O)C(=O)N1` (centres unmarked) [Compound D, 2-(4-chlorophenyl)-N-((2-(2,6-dioxopiperidin-3-yl)-1-oxoisoindolin-5-yl)methyl)-2,2-difluoroacetamide] was run?
**A.** Its EC50 is 0.062 µM.

**Q.** What about the EC50 (ML-2 cells; ML-2, 48 hr) of the same compound?
**A.** Its EC50 is 0.031 µM.

**Q.** What about the EC50 (ML-2 cells; ML-2, 72 hr) of the same compound?
**A.** Its EC50 is 0.021 µM.

**Q.** What about the EC50 (ML-2 cells; ML-2, 96 hr) of the same compound?
**A.** The EC50 was 0.025 µM.

**Q.** What about the “Average Percent Increase in Apoptosis at 123 nM Compound D, Apoptosis (12 hr)” value (ML-2 cells; ML-2, 123 nM, 12 hr) of the same compound?
**A.** Its value is 2%.

**Q.** What about the “Average Percent Increase in Apoptosis at 123 nM Compound D, Apoptosis (24 hr)” value (ML-2 cells; ML-2, 123 nM, 24 hr) of the same compound?
**A.** Its value is 17%.

**Q.** What about the “Average Percent Increase in Apoptosis at 123 nM Compound D, Apoptosis (48 hr)” value (ML-2 cells; ML-2, 123 nM, 48 hr) of the same compound?
**A.** Its value is 51%.

**Q.** And the IC50 (OCI-AML2 cells [1])?
**A.** Its IC50 is 0.057 µM.

**Q.** And the “effect on IKZF1 level” value (IKZF1)?
**A.** Its value is “induced degradation”.

**Q.** What about the EC50 (OCI-AML2 cells [2]; OCI-AML2, 48 hr) of the same compound?
**A.** The EC50 was 0.081 µM.

**Q.** And the EC50 (OCI-AML2 cells [2]; OCI-AML2, 72 hr)?
**A.** The EC50 was 0.041 µM.

**Q.** What about the EC50 (OCI-AML2 cells [2]; OCI-AML2, 96 hr) of the same compound?
**A.** Its EC50 is 0.038 µM.

**Q.** And the “Average Percent Increase in Apoptosis at 123 nM Compound D, Apoptosis (12 hr)” value (OCI-AML2 cells [2]; OCI-AML2, 123 nM, 12 hr)?
**A.** The value was 0%.

**Q.** And the “Average Percent Increase in Apoptosis at 123 nM Compound D, Apoptosis (24 hr)” value (OCI-AML2 cells [2]; OCI-AML2, 123 nM, 24 hr)?
**A.** The value was 3%.

**Q.** What about the “Average Percent Increase in Apoptosis at 123 nM Compound D, Apoptosis (48 hr)” value (OCI-AML2 cells [2]; OCI-AML2, 123 nM, 48 hr) of the same compound?
**A.** The value was 33%.

**Q.** And the IC50 (U-937 cells; Homo sapiens, U-937, 72-hour CTG assay, read-out: IC50 of the anti-proliferative effect)?
**A.** The IC50 was 0.074 µM.

**Q.** And the anti-proliferative effect (U-937 cells; U937 CRBN -/- cells, 48 hours)?
**A.** Its anti-proliferative effect is “completely abolished”.

**Q.** What about the “cell proliferation (CellTiter-Glo)” value (U-937 cells; U937 parental cells, 0.001 μM to 10 μM, 48 hours) of the same compound?
**A.** The value was “inhibited cell proliferation”.

**Q.** What about the “time of GSPT1 degradation” value (GSPT1 [3]; KG1, 200 nM) of the same compound?
**A.** The value was no more than 2 h.

**Q.** And the “degradation of GSPT1” value (GSPT1 [3]; KG1, 200 nM, 8 or 12 hours)?
**A.** Its value is “induced degradation”.

**Q.** And the “reduction of GSPT1 protein levels” value (GSPT1 [3]; KG-1, 100 nM Compound D, 4 hours)?
**A.** The value was “greater than 800”.

**Q.** And the “reduction of GSPT1 protein levels” value (GSPT1 [3]; KG-1, 100 nM or greater, 8-hour time point)?
**A.** The value was greater than 90%.

**Q.** And the “Reduction in GSPT1 Protein Level” value (GSPT1 [4]; PBMC sample 4328 (normal), 100 nM Compound D, 8 hours)?
**A.** The value was 67%.

**Q.** And the “Reduction in GSPT1 Protein Level” value (GSPT1 [4]; PBMC sample 4328 (normal), 100 nM Compound D, 22 hours)?
**A.** Its value is 92%.

**Q.** And the “Reduction in GSPT1 Protein Level” value (GSPT1 [4]; PBMC sample 4328 (normal), 300 nM Compound D, 8 hours)?
**A.** Its value is 80%.

**Q.** What about the “Reduction in GSPT1 Protein Level” value (GSPT1 [4]; PBMC sample 4328 (normal), 300 nM Compound D, 22 hours) of the same compound?
**A.** The value was 98%.

**Q.** What about the “Reduction in GSPT1 Protein Level” value (GSPT1 [4]; PBMC sample 4379 (normal), 100 nM Compound D, 8 hours) of the same compound?
**A.** The value was 39%.

**Q.** What about the “Reduction in GSPT1 Protein Level” value (GSPT1 [4]; PBMC sample 4379 (normal), 100 nM Compound D, 22 hours) of the same compound?
**A.** The value was 73%.

**Q.** And the “Reduction in GSPT1 Protein Level” value (GSPT1 [4]; PBMC sample 4379 (normal), 300 nM Compound D, 8 hours)?
**A.** The value was 58%.

**Q.** What about the “Reduction in GSPT1 Protein Level” value (GSPT1 [4]; PBMC sample 4379 (normal), 300 nM Compound D, 22 hours) of the same compound?
**A.** The value was 83%.

**Q.** And the “time at which GSPT1 degradation was evident” value (GSPT1 [4]; healthy PBMCs, 10 nM Compound D)?
**A.** Its value is 4 h.

**Q.** And the “Reduction in GSPT1 Protein Level” value (GSPT1 [5]; 100 nM Compound D, 8 hours)?
**A.** Its value is 86%.

**Q.** What about the “Reduction in GSPT1 Protein Level” value (GSPT1 [5]; 100 nM Compound D, 22 hours) of the same compound?
**A.** The value was 100%.

**Q.** And the “Reduction in GSPT1 Protein Level” value (GSPT1 [5]; 300 nM Compound D, 8 hours)?
**A.** Its value is 100%.

**Q.** What about the “Reduction in GSPT1 Protein Level” value (GSPT1 [5]; 300 nM Compound D, 22 hours) of the same compound?
**A.** Its value is 100%.
